Ends that are not written are not given here.
Tests used:
[1] = tested on: normal young male Fischer 344 rats; test: Striatal microdialysis 28 days after intranigral DNSP-11; type: in vivo, rat
Protocol: Infusion Delivery of DNSP-11 or Vehicle: Isoflurane anesthetized (1.5-2.5%) F344 rats received 5 μl of 6 μg/μL DNSP-11 solution or citrate buffer vehicle solution in a blinded manner. Treatment was delivered to the nigral cell bodies using the same stereotaxic coordinates and protocol for solution delivery as in studies of GDNF.
Reverse Microdialysis: Reverse in vivo microdialysis was accomplished using methods and brain coordinates described by Hebert et al. (1996)J Pharmacol. Exper. Ther. 279:1181-1190. CMA 11 microdialysis probes with a 4.0 mm membrane length and 6 kDa molecular weight cut-off were placed within the rat striatum.
Prior studies with GDNF have shown robust effects on both potassium and amphetamine-evoked release 28 days after a single injection into the rat substantia nigra (Hebert et al. (1997) J. Pharm. Exp. Thera. 282: 760) indicating the functional effects of this trophic factor on dopamine signaling in the normal rat striatum. In the present experiment, 30 μg of DNSP-11 was injected into the right substantia nigra of normal young male Fischer 344 rats. Twenty-eight days after injection, in vivo microdialysis was performed in these animals to investigate dopamine neurochemistry in the ipsilateral striatum. […] Winkler et al. (1996) J. Neurosci. 16: 7206; Hebert et al. (1996) J Pharmacol Exper Ther. 279: 1181-1190 (1996).

[2] = tested on: MN9D dopaminergic cells; test: Caspase-3 activity assay, protection against 6-OHDA toxicity; type: cell-based; details: 1 ng/mL for 1 hour before 100 μM 6-OHDA for 15 min; at 3 h
Protocol: MN9D Cell Cultures: The MN9D cell line has been described by Choi (1991) Brain Res. 552:67-76 and was a gift from Michael Zigmond. Cells were cultured in DMEM supplemented with 10% Fetal Bovine Serum (FBS, Hyclone), 50 U/mL penicillin and streptomycin. For experiments, the cells were plated on 24-well poly-D-lysine in DMEM with 1% (v/v) penicillin-streptomycin. The cells were grown at 37° C. in 5% CO2.
Caspase-3 Activity Assay in MN9D Cells: MN9D cells were plated to 100,000 cells/well. Cell cultures were exposed to DNSP-11 (1 ng/mL) or buffer for 1 hour prior to 15 min 100 μM 6-OHDA exposure. Caspase-3 activity was monitored after 3 hours by fluorescence (excitation/emission 496/520 nm) using the Enz Chek Caspase-3 kit. Protein levels of lysed cells were measured by BCA assay (BioRad) and normalized for every experiment. Data expressed as % control and repeated a minimum of 3 times.
To evaluate DNSP-11's neuroprotective properties, DNSP-11 was compared to GDNF in its protection against 6-OHDA-induced toxicity in the dopaminergic cell line, MN9D. MN9D dopaminergic cells were incubated for 1 hour with either citrate buffer (control), 1 ng/mL of DNSP-11 or GDNF prior to 100 μM 6-OHDA exposure for 15 min. Data are +SD, one-way ANOVA with Tukey's post hoc analysis, *p<0.05, **p<0.01, ***p<0.001 vs. control; #p<0.05, ##p<0.01, ###p<0.001 vs. 6-OHDA.

[3] = tested on: B65 cells; test: Caspase-3 activity assay, mitochondrial toxins; type: cell-based
Protocol: MN9D cells and B65 cells were cultured in Dulbecco's Modified Eagle's Medium (DMEM; 11995 (containing pyridoxol HCl); Sigma, St. Louis, Mo.) supplemented with 10% fetal bovine serum (HyClone, Logan, Utah), 50 U/mL penicillin and streptomycin. For each assay the cells were treated with mitochondrial-specific environmental toxins, i.e., MPP+, rotenone, and/or TaClo, and with or without DNSP-11. After incubation with the toxins, the cells were plated on 24-well poly-D-lysine plates (50,000 cells/well) for TUNEL assay (as described below) or 100,000 cell/well for caspase-3 assay in DMEM medium with 1% (v/v) penicillin-streptomycin only (as described below).
B65 cells were plated on 24-well poly-D-lysine plates in DMEM and 50u/ml penicillin and streptomycin. Cells incubated in either 50 nM, 100 nM, or 250 nM rotenone or 10 μM, […] or 50 μM TaClo for 1 to 12 hours at 37° C. in 5% CO2, following pretreatment (1 to 30 minutes) with or without 10 nM or 100 nM DNSP-11. The cells were then lysed and protein level measured by BCA assay (BioRad). The protein level were normalized for every experiment. The Enz Chek Caspase-3 Kit (Invitrogen) was used to detect caspase-3 activity and fluorescence was read on fluorescence reader (excitation/emission 496/520 nm). Data are expressed as % of control and were repeated a minimum of three times.

[4] = ipsilateral striatum, 28 days after 30 μg into right substantia nigra

PPEAPAEDRSL-NH2 [DNSP-11, PPEAPAEDRSL-amide]
Basal DA ([1]; 28 days after delivery, vehicle 26.0±2.7 nM): 45.8 ± 7.7 nM
Basal concentrations of HVA ([1]; 28 days after delivery, vehicle 2419±251 nM): 4.516 ± 0.502 µM
Basal concentrations of DOPAC ([1]; 28 days after delivery, vehicle 3355±338 nM): 6.544 ± 0.836 µM
resting levels of HVA, increase vs controls [1, 4]: over 100%
resting levels of dopamine, increase vs controls [1, 4]: over 100%
caspase-3 activity [2]: significant reduction
caspase-3 activity, DNSP-11 alone ([3]; no toxin): no significant effect
caspase-3 activity, protection from toxins ([3]; rotenone or TaClo 1 to 12 hours, pretreatment with 10 nM or 100 nM DNSP-11): significant protection
